This is an account of results in patent US11896582B2, “Use and composition for treating myasthenia gravis and other myasthenic syndromes” (priority 2017, dated 2024).

The test system of the series is human subjects. Description: Phase I single-blind study: single increasing oral doses of pyridostigmine bromide with or without ondansetron, gastro-intestinal tolerability. The format is in vivo. The conditions noted are these: healthy volunteers, one value per subject; for FID-1 Dose Limiting Adverse Event: pyridostigmine alone, oral. On the procedure: A Phase I study was conducted in human subjects receiving a single oral dose of pyridostigmine bromide with or without a single oral dose of ondansetron hydrochloride dihydrate (“ondansetron”), as a representative 5HT3-antagonist. The study was a single center, single-blind study.
Following enrollment in the study, participants received single increasing oral doses of pyridostigmine, given once daily in the morning. The starting dose of pyridostigmine was 30 mg and the dose was increased daily by 30 mg increments. Once a subject had reached his/her first intolerable dose (“FID-1”), upward dose escalation was discontinued. FID was defined as: • (a) One (1) episode of vomiting, or • (b) Two (2) episodes of retching, or • (c) One (1) episode of severe nausea (Grade 3; defined as nausea interfering with activities of daily living or inadequate oral caloric or fluid intake; tube feeding, total parenteral nutrition or hospitalization indicated) lasting more than 1 hour, or • (d) Three (3) consecutive episodes at every 4-hour ratings of moderate nausea (Grade 2; defined as subjectively symptomatic, but not interfering with activities of daily living), or • (e) One (1) episode of moderate diarrhea (Grade 2; defined as 4-6 stools more than at baseline).
When a subject reached FID-1 on pyridostigmine alone, the subject was washed out for 2 to 7 days, and then received single daily doses of pyridostigmine starting at 30 mg and titrated upward by 30 mg increments, together with oral ondansetron hydrochloride dihydrate (10 mg, equivalent to 8 mg ondansetron base) until subjects again reached an intolerable dose (FID-2).
On each study day, subjects were followed up for up to 8 hours following drug administration for AEs, vital signs, ECGs. In addition, a laboratory panel was taken at screening and at the end of the study.

Where “and” joins values, the source holds several entries; their conditions need not be identical. Identical values can stand only once.

For the compound `CN(C)C(=O)Oc1ccc[n+](C)c1` [Pyridostigmine, Pyridostigmine bromide], the “FID-1 Dose Limiting Adverse Event” value was “Vomiting”. Also, the “FID-1 (Pyridostigmine alone)” value (first intolerable dose, single oral daily doses from 30 mg, raised by 30 mg increments) is 60 mg (2×) and 90 mg. The “MTD-1 (Pyridostigmine alone)” value (maximum tolerated single oral dose) is 30 mg and 60 mg. In addition, the “FID-1 Dose Limiting Adverse Event” value (listed as pyridostigmine) is “vomiting”.
